This passage reports calcium oscillation score results from the OligoGym collection.

Bases are written 5' to 3'; sugars and linkages follow in the same order, as letters with counts (s phosphorothioate, o phosphodiester; PS: all linkages phosphorothioate). The collection does not say whether C is 5-methylated. l = locked nucleic acid (LNA); d = 2'-deoxy (DNA)

This series deals with Tau. Nature of the series: rat primary cortical neurons, FLIPR, 25 uM ASO.
With “GCATGCAGTTTATTCCTGGC (sugars l3 d14 l3, PS)”, the calcium oscillation score was 4.03 % of control. Turning to “GCCACACTTGGAGGTCACCT (sugars l3 d14 l3, PS)”, the calcium oscillation score is 4.52 % of control. Turning to GCCACCTCCTGGTTTA (sugars l3 d10 l3, PS), the calcium oscillation score was 86.1 % of control.

For the sequence “GCCACCTCCTGGTTTATGAT (sugars l3 d14 l3, PS)”, the calcium oscillation score was 31.6 % of control. With “GCCAGGGACGTGGGTGATAT (sugars l3 d14 l3, PS)”, the calcium oscillation score was 0 % of control. As for “GCCATATTTCAACTCTT (sugars l2 d11 l4, PS)”, the calcium oscillation score is 57.7 % of control. To “GCCATTTTCCATATAAT (sugars l4 d11 l2, PS)” belongs 37.5 % of control; to “GCCCACCCATCAATTTGGAA (sugars l3 d14 l3, PS)”, 1.3 % of control. Turning to “GCCCATTCTACCTGGCCCAT (sugars l3 d14 l3, PS)”, the calcium oscillation score was 38.3 % of control. “GCCCCACTTTTAATTAA (sugars l2 d11 l4, PS)”: the calcium oscillation score is 86.2 % of control. Regarding GCCCTAAAGTCCCAG (sugars l3 d9 l3, PS), the calcium oscillation score was 34.3 % of control. Regarding GCCCTAAAGTCCCAGG (sugars l3 d10 l3, PS), the calcium oscillation score is 41.9 % of control. As for GCCTAATGAGCCACAC (sugars l3 d10 l3, PS), the calcium oscillation score is 70.6 % of control.

Take “GCCTAATGAGCCACACTTGG (sugars l3 d14 l3, PS)”: the calcium oscillation score was 16.6 % of control. To GCCTCATAAACCTAAT (sugars l3 d9 l4, PS) belongs 68.2 % of control; to “GCCTCTAGCCACATGGACCC (sugars l3 d14 l3, PS)”, 4.03 % of control; to GCCTGATCACAAACCC (sugars l3 d10 l3, PS), 144 % of control. Take “GCCTTACTTTCTACTCA (sugars l2 d13 l2, PS)”: the calcium oscillation score is 70.7 % of control. In the case of “GCCTTACTTTCTACTCAA (sugars l2 d13 l3, PS)”, the calcium oscillation score is 53.9 % of control. On to GCGACTTGTACACG (sugars l3 d8 l3, PS), for which the calcium oscillation score was 63.7 % of control. GCGACTTGTACACGAT (sugars l3 d10 l3, PS): the calcium oscillation score is 32.2 % of control. “GCGACTTGTACACGATCTCC (sugars l3 d14 l3, PS)”: the calcium oscillation score is 7.77 % of control. In the case of GCGAGTCTACCATGTC (sugars l3 d10 l3, PS), the calcium oscillation score was 76 % of control. In the case of “GCGAGTCTACCATGTCGATG (sugars l3 d14 l3, PS)”, the calcium oscillation score is 0 % of control. For GCGCAGGCGCGAGCAG (sugars l3 d10 l3, PS), the calcium oscillation score is 0 % of control. To GCGGAAGGTCAGCTTG (sugars l3 d10 l3, PS) belongs 25.9 % of control; to GCGGCGCAGGCGCGAG (sugars l3 d10 l3, PS), 73.6 % of control; to GCGTGATCTTCCAT (sugars l3 d8 l3, PS), 182 % of control. To GCGTTCTCGCGGAA (sugars l3 d8 l3, PS) belongs 3.83 % of control; to GCTAAGGCAAGGCCTA (sugars l3 d10 l3, PS), 129 % of control. To “GCTCAGCTAAGACCCTCAGG (sugars l3 d14 l3, PS)” belongs 29.4 % of control. For GCTCCAACCACACCTT (sugars l2 d11 l3, PS), the calcium oscillation score is 85 % of control.

For the sequence “GCTCCAACCACACCTTT (sugars l2 d11 l4, PS)”, the calcium oscillation score is 87.2 % of control. To “GCTCCATATTCCTGCCCAAG (sugars l3 d14 l3, PS)” belongs 34.2 % of control. In the case of GCTCTTCAAATCATTC (sugars l4 d8 l4, PS), the calcium oscillation score was 58.3 % of control. To “GCTCTTCAAATCATTCA (sugars l4 d11 l2, PS)” belongs 81.1 % of control.

Consider GCTGAGGTGCTCTGGT (sugars l3 d10 l3, PS), for which the calcium oscillation score was 19.2 % of control. To “GCTGGGTGGTGTCTTTGGAG (sugars l3 d14 l3, PS)” belongs 0 % of control; to “GCTTAATAAACACCCTT (sugars l2 d11 l4, PS)”, 68.5 % of control.

Take GCTTCAGTCCTAATC (sugars l3 d9 l3, PS): the calcium oscillation score was 11.5 % of control. Take GCTTCCAGTCCCGTCT (sugars l3 d10 l3, PS): the calcium oscillation score is 104 % of control.

As to GCTTTCCAATTCCCCA (sugars l2 d12 l2, PS), the calcium oscillation score was 101 % of control. To “GCTTTCCAATTCCCCAT (sugars l2 d12 l3, PS)” belongs 94.5 % of control; to “GCTTTTCCCAATTATTA (sugars l4 d11 l2, PS)”, 62 % of control. Regarding “GGAAAGATGAAATTTGCTCT (sugars l3 d14 l3, PS)”, the calcium oscillation score was 74.1 % of control.

Consider GGAACTATTGATAA (sugars l3 d8 l3, PS), for which the calcium oscillation score is 0 % of control.

“GGACGTGGGTGATATTGTCC (sugars l3 d14 l3, PS)”: the calcium oscillation score is 0 % of control.

For the sequence GGACGTTGCTAAGATC (sugars l3 d10 l3, PS), the calcium oscillation score is 3.32 % of control. As to “GGAGGCAGACACCTCGTCAG (sugars l3 d14 l3, PS)”, the calcium oscillation score was 51.8 % of control. Consider “GGAGTGCTCTTAGCATCAGA (sugars l3 d14 l3, PS)”, for which the calcium oscillation score is 14.8 % of control. Regarding GGATGTTGCCTAATGA (sugars l3 d10 l3, PS), the calcium oscillation score is 0 % of control. To “GGATGTTGCCTAATGAGCCA (sugars l3 d14 l3, PS)” belongs 0 % of control.

As for GGCATGATTGTGGGC (sugars l3 d9 l3, PS), the calcium oscillation score is 5.22 % of control. In the case of GGCATGATTGTGGGCT (sugars l3 d10 l3, PS), the calcium oscillation score was 6.12 % of control. Take GGCCACCTCCTGGTTT (sugars l3 d10 l3, PS): the calcium oscillation score was 39.3 % of control. With “GGCCACCTCCTGGTTTATGA (sugars l3 d14 l3, PS)”, the calcium oscillation score was 0 % of control. Take GGCCTGATCACAAACC (sugars l3 d10 l3, PS): the calcium oscillation score is 132 % of control. Consider “GGCCTGATCACAAACCCTGC (sugars l3 d14 l3, PS)”, for which the calcium oscillation score was 9.07 % of control. To GGCGACTTGTACAC (sugars l3 d8 l3, PS) belongs 117 % of control; to GGCGACTTGTACACGA (sugars l3 d10 l3, PS), 69.4 % of control. On to “GGCGACTTGTACACGATCTC (sugars l3 d14 l3, PS)”, for which the calcium oscillation score is 46.6 % of control. For GGCGAGTCTACCATGT (sugars l3 d10 l3, PS), the calcium oscillation score was 43.4 % of control. On to “GGCGAGTCTACCATGTCGAT (sugars l3 d14 l3, PS)”, for which the calcium oscillation score is 91.5 % of control. Regarding GGCGCAGGCGCGAGCA (sugars l3 d10 l3, PS), the calcium oscillation score is 7.62 % of control. Take GGCGGCGCAGGCGCGA (sugars l3 d10 l3, PS): the calcium oscillation score is 49.6 % of control.

Turning to GGCGGTGACTGCGA (sugars l3 d8 l3, PS), the calcium oscillation score was 41.7 % of control.

For GGCGGTGACTGCGAG (sugars l3 d9 l3, PS), the calcium oscillation score was 51.5 % of control. For the sequence GGCGTTCTCGCGGAAG (sugars l3 d10 l3, PS), the calcium oscillation score was 102 % of control.

For the sequence GGCTTTGGCGTTCTCG (sugars l3 d10 l3, PS), the calcium oscillation score is 1.35 % of control. Consider “GGGACCCAATCTTCGACTGG (sugars l3 d14 l3, PS)”, for which the calcium oscillation score was 0 % of control. GGGACGTGGGTGATAT (sugars l3 d10 l3, PS): the calcium oscillation score was 27.6 % of control. Consider “GGGACGTGGGTGATATTGTC (sugars l3 d14 l3, PS)”, for which the calcium oscillation score is 0 % of control. To “GGGAGATTCTTTCAGGCCAG (sugars l3 d14 l3, PS)” belongs 48.1 % of control; to GGGAGGCAGACACCTC (sugars l3 d10 l3, PS), 42.8 % of control.

Take “GGGAGGCAGACACCTCGTCA (sugars l3 d14 l3, PS)”: the calcium oscillation score is 102 % of control. As to “GGGCCTGATCACAAACCCTG (sugars l3 d14 l3, PS)”, the calcium oscillation score was 42.7 % of control. To GGGCGAGTCTACCATG (sugars l3 d10 l3, PS) belongs 16.3 % of control; to “GGGCGAGTCTACCATGTCGA (sugars l3 d14 l3, PS)”, 66 % of control. Regarding “GGGTGATATTGTCCAGGGAC (sugars l3 d14 l3, PS)”, the calcium oscillation score is 0 % of control. As to GGTCAACTGGTTTGTA (sugars l3 d10 l3, PS), the calcium oscillation score was 55.6 % of control. In the case of “GGTCAACTGGTTTGTAGACT (sugars l3 d14 l3, PS)”, the calcium oscillation score is 6.9 % of control. Regarding GGTCTGAGCTACCAGG (sugars l3 d10 l3, PS), the calcium oscillation score was 14.8 % of control. On to GGTCTGGCATGGGC (sugars l3 d8 l3, PS), for which the calcium oscillation score is 0 % of control.

Consider GGTCTGGCATGGGCA (sugars l3 d9 l3, PS), for which the calcium oscillation score was 59 % of control. Regarding GGTGATATTGTCCAGG (sugars l3 d10 l3, PS), the calcium oscillation score is 18.5 % of control. Take “GGTGATATTGTCCAGGGACC (sugars l3 d14 l3, PS)”: the calcium oscillation score was 0 % of control. In the case of GGTGCTCTGGTCAA (sugars l3 d8 l3, PS), the calcium oscillation score was 102 % of control.

Turning to GGTGCTCTGGTCAAGG (sugars l3 d10 l3, PS), the calcium oscillation score is 14.9 % of control.

Regarding “GGTTAAGTGATTAACCAATT (sugars l3 d14 l3, PS)”, the calcium oscillation score was 157 % of control.

“GGTTAGCCCTAAAGTCCCAG (sugars l3 d14 l3, PS)”: the calcium oscillation score is 37.3 % of control. On to GGTTGGATCAGAGGGT (sugars l3 d10 l3, PS), for which the calcium oscillation score was 7.41 % of control. To “GGTTTATGATGGATGTTGCC (sugars l3 d14 l3, PS)” belongs 26.6 % of control; to GGTTTGTAGACTATT (sugars l3 d9 l3, PS), 0 % of control; to “GGTTTGTAGACTATTTGCAC (sugars l3 d14 l3, PS)”, 0 % of control. Consider GTAACCAACTTTCATC (sugars l3 d9 l4, PS), for which the calcium oscillation score is 74.8 % of control. In the case of “GTAACCAACTTTCATCT (sugars l2 d12 l3, PS)”, the calcium oscillation score is 78.7 % of control.
